Values quoted from earlier work as cited in patent US20070254941A1, “Subtantially pure ropinirole hydrochloride, polymorphic form of ropinirole and process for their preparation” (Glenmark Pharmaceuticals Limited, priority 2006, published 2007).
Where a name gives a salt, the structure may show the parent alone.

How the values were obtained:
D2 dopamine receptor = D2 dopamine receptor (Homo sapiens, UniProt P14416)
D3 dopamine receptor [1] = molecular target: T1, D3 dopamine receptor (Homo sapiens, UniProt P35462); details: D3 versus D2 or D4
T1 sequence (P35462 whole entry): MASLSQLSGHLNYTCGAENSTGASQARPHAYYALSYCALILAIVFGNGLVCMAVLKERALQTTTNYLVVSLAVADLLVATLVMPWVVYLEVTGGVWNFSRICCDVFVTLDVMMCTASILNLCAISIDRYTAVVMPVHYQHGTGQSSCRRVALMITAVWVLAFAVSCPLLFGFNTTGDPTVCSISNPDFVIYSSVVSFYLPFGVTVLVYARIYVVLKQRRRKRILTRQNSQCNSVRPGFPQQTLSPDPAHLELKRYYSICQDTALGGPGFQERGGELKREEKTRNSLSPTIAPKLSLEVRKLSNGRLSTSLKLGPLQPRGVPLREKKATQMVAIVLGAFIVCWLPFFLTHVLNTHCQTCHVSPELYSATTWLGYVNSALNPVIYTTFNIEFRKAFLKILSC

D3 dopamine receptor [2] = molecular target: T1, D3 dopamine receptor

Chain of D2 dopamine receptor (P14416 whole entry): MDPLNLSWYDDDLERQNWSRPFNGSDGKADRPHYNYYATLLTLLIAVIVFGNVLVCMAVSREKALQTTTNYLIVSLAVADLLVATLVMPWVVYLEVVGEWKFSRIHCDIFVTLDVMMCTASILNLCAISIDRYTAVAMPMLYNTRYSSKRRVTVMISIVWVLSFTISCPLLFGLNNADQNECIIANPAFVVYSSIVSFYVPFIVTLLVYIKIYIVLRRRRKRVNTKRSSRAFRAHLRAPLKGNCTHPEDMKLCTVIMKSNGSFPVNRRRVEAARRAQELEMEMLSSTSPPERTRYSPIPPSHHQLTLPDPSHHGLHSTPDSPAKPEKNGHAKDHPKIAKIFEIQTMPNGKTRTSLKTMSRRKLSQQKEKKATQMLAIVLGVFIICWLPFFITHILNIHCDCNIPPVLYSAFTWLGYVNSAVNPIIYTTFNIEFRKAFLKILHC

In the case of `CCCN(CCC)CCc1cccc2c1CC(=O)N2` [Ropinirole hydrochloride], the “intrinsic activity at D2 dopamine receptor subtype” value (D2 dopamine receptor) is listed as “full intrinsic activity”, the “affinity for D3 relative to D2 or D4 receptor subtypes” value (D3 dopamine receptor [1]) is listed as “higher affinity to D3 than to D2 or D4” and the “intrinsic activity at D3 dopamine receptor subtype” value (D3 dopamine receptor [2]) is listed as “full intrinsic activity”.
